Measurements from patent US6756480B2, “Modulators of receptors for parathyroid hormone and parathyroid hormone-related protein” (Amgen Inc., priority 2000, dated 2004).

What was measured:
[1] = test system: Sprague Dawley (SD) rats; assay: Anabolic assay: lumbar (L3) BMD by DEXA, PTH constructs with or without OPG-Fc; type: in vivo; settings: 6-month-old male SD rats, DEXA Day 7; OPG-Fc 1 mg/kg once; PTH-(1-34) 20 nMoles/kg x3; PTH-(1-34)-Fc 60 nMoles/kg once
Procedure: Briefly, 6-month-old male Sprague Dawley (SD) rats were divided into groups of 6. Baseline bone mineral density (BMD) was determined in the third lumbar vertebra (L3) of all rats by dual-energy X-ray absorptiometry (DEXA) (Day 0). Rats were then treated according to the following schedule:
Group 1: Vehicle controls (PBS, injected SC, Days 1, 3, and 5)
Group 2: OPG-Fc, single SC injection (1 mg/kg) on Day 1
Group 3: PTH-(1-34), SC injections on Days 1, 3, and 5, at 20 nMoles PTH/kg/injection. This represents an optimal anabolic PTH regimen.
Group 4: Same as group 3, but with a single OPG-Fc injection on Day 1.
Group 5: Single SC injection of PTH-(1-34)-Fc at 60 nMoles/kg, on Day 1. This represents a molar dose which is equivalent to the total dose of PTH-(1-34) received by group 3, but in a single injection.
Group 6: Same as group 5, but with a single OPG-Fc injection (SC, 1 mg/kg) on Day 1.
DEXA of the lumbar spine was performed again on Day 7 to evaluate changes in BMD. […] The anabolic effect of a single treatment with PTH-(1-34)-Fc plus OPG-Fc was greater than that induced by multiple injections of PTH-(1-34), with or without OPG-Fc co-treatment.
Normal 6 month old male rats were treated with PTH-Fc or PTH or vehicle by a single SC injection. Some rats also received a single SC injection of OPG. BMD was determined 7 days later by DEXA. Data represent means+SD, N=6 rats/group.

[2] = test system: mice; assay: Hypercalcemia assay: murine hypercalcemia model, single SC injection, blood ionized calcium; type: in vivo; settings: single SC injection, equimolar doses, blood ionized calcium
Procedure: Mice were challenged with vehicle (PBS, —X—), or with PTH-(1-34) (open symbols) or with PTH-(1-34)-Fc (closed symbols). Doses were 156 nmol/kg (circles), 469 nmol/kg (triangles) or 1,560 nmol/kg (squares). Data represent group means, n=6 mice/group.
We tested the potency and duration of effect of PTH-(1-34)-Fc in a murine hypercalcemia model. Briefly, mice were injected once SC with varying doses of PTH-(1-34) or PTH-(1-34)-Fc, and peripheral blood was collected from the retroorbital sinus for determination of blood ionized calcium. The half-life and the potency of PTH-(1-34)-Fc was greater than that of PTH-(1-34), as evidenced by the sustained hypercalcemic response of mice to the former agent (FIG. 4). Hypercalcemia induced by PTH-(1-34) persisted for 6-24 h, while equimolar doses of PTH-(1-34)-Fc caused more sustained hypercalcemia (48-72 h). This duration of response is consistent with greater half-life of the PTH-(1-34)-Fc construct vs. PTH-(1-34).

[3] = test system: mice; assay: Mouse bioassay: SC injection days 0, 5, 10; clinical chemistry (calcium, AP, TRAP) and tibial pQCT; type: in vivo
Procedure: Peripheral blood was obtained daily for 3 days following single subcutaneous injections of the indicated compounds.
Peripheral quantitative computed tomography (pQCT) was performed on the proximal tibial metaphysis of mice on day 15, after injections of PTH constructs on day 0, 5 and 10.
We then tested the effects of PTH-(1-34), PTH-(1-34)-Fc, PTH-(1-31)-Fc and PTH-(1-30)-Fc in mice. Four week old male mice were injected on days 0, 5, and 10 with vehicle or with PTH fragments, by SC injection. Peripheral blood was obtained for clinical chemistry at 24, 48, and 72 h. Mice were killed on day 15, vertebrae, tibiae and femurs were harvested for histology and one tibia was collected for bone density measurements (peripheral quantitative computed tomography, pQCT). Clinical chemistry endpoints included total serum calcium, serum alkaline phosphatase (AP, a marker of osteoblast activity), and serum tartrate-resistant acid phosphatase (TRAP, a marker of osteoclast activity). For each animal, the ratio of AP:TRAP was calculated as an index of relative osteoblast activity compared to osteoclast activity. A higher AP:TRAP ratio would indicate a potentially more anabolic agent.

[4] = test system: rat osteoblast-like ROS 17/2.8 cells; assay: cAMP accumulation assay (IBMX, 15 minute challenge, ELISA); type: cell-based; settings: 15 minutes
Procedure: Cultures were treated with the phosphodiesterase inhibitor IBMX and then challenged for 15 minutes with various PTH fragments. CAMP was measured by ELISA.
We tested the relative ability of PTH-Fc constructs to stimulate cAMP accumulation in rat osteoblast-like ROS 17/2.8 cells. Cultures were treated with the phosphodiesterase inhibitor IBMX to promote the accumulation of cAMP. Cultures were then challenged for 15 minutes with either vehicle (PBS), or various PTH constructs.

[5] = test system: mice; settings: non-Fc conjugated peptide, stated as usual behaviour; cited from earlier work
[6] = test system: male BDF1 mice; assay: Monotherapy in adult mice: twice-weekly PTH-(1-34)-Fc versus daily PTH-(1-34), tibial BMD by pQCT; type: in vivo; settings: 3 weeks, PTH-(1-34)-Fc twice weekly, various doses
Procedure: Daily PTH [PTH-(1-34)] was given at 80 μg/kg/day (20 nmol/kg/day).
Briefly, male BDF1 mice (4 months of age) were treated twice per week by subcutaneous injection with various doses of PTH-(1-34)-Fc or with vehicle (PBS). Other mice were treated daily with SC injections of PTH-(1-34) at a dose of 80 μg/kg/day (20 nmol/kg/day), a treatment regimen which is optimal for increasing bone mass in rodents (M. Gunness-Hey and J. M. Hock, Metab. Bone Dis. & Rel. Res. 5:177-181, 1984). After 3 weeks, mice were sacrificed and tibiae were analyzed for bone mineral density (BMD) via pQCT (FIG. 10).

human PTH(1-34) [PTH-(1-34), reference compound]
BMD in L3 compared to PBS-treated rats [1]: increased modestly
duration of hypercalcemia [2]: 6 to 24 h
calculated AP:TRAP ratio ([3]; 300 nmoles/kg): unchanged
serum AP (osteoblast marker) ([3]; 300 nmoles/kg (given for PTH-(1-34)-Fc), 72 h): unchanged
serum calcium ([3]; 300 nmoles/kg SC (equimolar), 24, 48, 72 h): not significantly different
bone mineral density (proximal tibial metaphysis) ([3]; 300 nmoles/kg on day 0, 5, 10, pQCT day 15): modest (non-significant) anabolic effect
serum TRAP (osteoclast marker) ([3]; mice, after single SC injection): not significantly changed
potency in cAMP accumulation relative to PTH-(1-31)-Fc and PTH-(1-30)-Fc [4]: slightly more potent
duration of transient increase in serum calcium normally caused [5]: 12 h
cancellous BMD compared to vehicle ([6]; PTH-(1-34) daily 80 μg/kg/day): significantly increased
total tibial BMD compared to vehicle ([6]; PTH-(1-34) daily 80 μg/kg/day): significantly increased
cortical BMD in the tibia ([6]; PTH-(1-34) daily): not significantly enhanced
